Reference: patent US20250195490A1, “ALPHA-METHYLENE AND AMINOMETHYL LACTONES AND LACTAMS FOR TREATMENT OF CLOSTRIDIOIDES DIFFICILE INFECTION (CDI)” (Purdue Research Foundation, priority 2022, published 2025)
Converted amounts (≈) assume the structure as drawn.

Experiments:
[1] = system: MRSA (USA300); test: microbe, parasite or virus in culture; assay type: cell-based, Staphylococcus aureus; conditions: aerobic, 37° C., at least 18 hours
Method: (§1) Method: The minimum inhibitory concentration (MIC) of the compounds and control drugs, linezolid (antibiotic), vancomycin (antibiotic), 5-fluorocytosine (5-FC, antifungal drug), and fluconazole (antifungal drug) was determined using the broth microdilution method according to the guidelines outlined by the Clinical and Laboratory Standards Institute (CLSI) against clinically relevant bacterial (methicillin-resistant Staphylococcus aureus (MRSA), vancomycin-resistant Enterococcus faecalis (VRE), vancomycin-resistant Enterococcus faecium (VRE), Clostridioides difficile and Escherichia coli) and fungal (Candida albicans) strains. A solution equivalent to 0.5 McFarland standard was prepared from each strain and diluted in cation-adjusted Mueller-Hinton broth (for S. aureus and E. coli), tryptone soy broth (for E. faecalis), or brain heart infusion broth (for E. faecium) to achieve a bacterial inoculum of about 5×10^5 CFU/mL. C. difficile strains were cultured in brain heart infusion broth supplemented with hemin and vitamin K. C. albicans was diluted in RPMI medium supplemented with 3-(N-morpholino) propanesulfonic acid to achieve a fungal concentration of about 1.5×10^3 CFU/mL. Compounds and control drugs were added in the first row of the 96-well plates and diluted with media containing bacteria (to achieve a concentration gradient ranging from 128 to 1 μg/mL). For MRSA, VRE, and E. coli strains, plates were then incubated aerobically at 37° C. for at least 18 hours. C. albicans was incubated aerobically at 37° C. for 24 hours. Plates containing C. difficile were incubated anaerobically at […] for 48 hours.

[2] = system: E. faecalis (VRE); test: microbe, parasite or virus in culture; assay type: cell-based, Enterococcus faecalis; conditions: aerobic, 37° C., at least 18 hours
Method: as §1

[3] = system: Clostridioides difficile; test: MIC by broth microdilution against Clostridioides difficile (Table 1); assay type: cell-based; conditions: anaerobic, 48 hours; strain BAA-1870
Method: as §1

[4] = system: E. coli (TolC mutant); test: MIC by broth microdilution against E. coli (TolC mutant); assay type: cell-based, Escherichia coli; conditions: for MIC E. coli (TolC mutant): aerobic, 37° C., at least 18 hours
Method: as §1

[5] = system: hypervirulent Clostridioides difficile strains; test: MIC against hypervirulent Clostridioides difficile strains; assay type: cell-based
Method: (§2) The antibacterial activity of compounds 48, 50, 51, 61 and 85 against a panel of Clostridioides difficile strains was evaluated. A bacterial solution equivalent to 0.5 McFarland standard was prepared and diluted in brain heart infusion broth supplemented with hemin and vitamin K. Compounds and control drugs were added in the first row of 96-well plates and serially diluted with media containing bacteria (to achieve a concentration gradient ranging from 128 to 1 μg/mL). Plates were then incubated anaerobically at […] for 48 hours.

[6] = system: clinically important Clostridioides difficile strains; test: MIC against clinically important Clostridioides difficile strains; assay type: cell-based
Method: as §2

[7] = system: L. gasseri; test: MIC against human normal gut microbiota: L. gasseri; assay type: cell-based, Lactobacillus gasseri; conditions: L. gasseri HM 407
Description: (§3) The activity of the selected lactones against the human gut microbiota was also examined. Microbiota interfere with C. difficile's ability to colonize the gastrointestinal tract and subsequently cause infection. Many antibiotics inhibit/kill the endogenous microflora, which permits enhanced colonization by C. difficile and infection. Three different bacterial species that are present in the gut microflora were used in this experiment; Bifidobacterium (anaerobic Gram-positive bacteria), Bacteroides (anaerobic Gram-negative bacteria) and Lactobacillus (microaerophilic Gram-positive bacteria). Ideal compounds/drugs are those with selective antibacterial activity against C. difficile so as to protect the indigenous microflora present in the GI tract from being damaged/killed (which will exacerbate infections caused by C. difficile).
(§4) Bifidobacterium and Bacteroides were first grown for 48 hours at 37° C., anaerobically, using brain heart infusion supplemented (BHIS) agar (brain heart infusion agar supplemented with hemin, vitamin K and L-cysteine). Lactobacillus was cultivated on MRS agar and incubated in the presence of 5% CO2 for 48 hours at 37° C. Each bacterium was suspended in phosphate-buffered saline (PBS) to achieve 0.5 McFarland standard and subsequently diluted in brain heart infusion supplemented broth (for Bifidobacterium and Bacteroides) or in MRS broth (for Lactobacillus) to achieve a bacterial inoculum of approximately 5×10^5 CFU/mL. Bacteria were then seeded in 96-well plates containing serial dilutions of the compounds and incubated for 48 hours. MICs reported in Table 4 are the minimum concentration of compound/control drug that inhibited the visual growth of bacteria.

[8] = system: L. casei; test: MIC against human normal gut microbiota: L. casei; assay type: cell-based, Lactobacillus casei; conditions: L. casei HM 334
Description: as §3, §4

[9] = system: L. reuteri; test: MIC against human normal gut microbiota: L. reuteri; assay type: cell-based, Lactobacillus reuteri; conditions: L. reuteri HM 120
Description: as §3, §4

[10] = system: L. crispatus; test: MIC against human normal gut microbiota: L. crispatus; assay type: cell-based, Lactobacillus crispatus
Description: as §3, §4

[11] = system: Ba. fragilis; test: MIC against human normal gut microbiota: Bacteroides fragilis; assay type: cell-based
Description: as §3, §4

[12] = system: Ba. dorsei; test: MIC against human normal gut microbiota: Bacteroides dorsei; assay type: cell-based
Description: as §3, §4

[13] = system: Bi. breve; test: MIC against human normal gut microbiota: Bifidobacterium breve; assay type: cell-based; conditions: Bi. breve HM 856
Description: as §3, §4

[14] = system: Bi. longum; test: MIC against human normal gut microbiota: Bifidobacterium longum; assay type: cell-based; conditions: Bi. longum HM 848
Description: as §3, §4

[15] = system: C. albicans; test: Broth microdilution against Candida albicans; assay type: cell-based; conditions: gradient 128 to 1 μg/mL, 24 hours
Method: as §1

[16] = system: E. faecium; test: Broth microdilution against vancomycin-resistant E. faecium; assay type: cell-based, Enterococcus faecium; conditions: gradient 128 to 1 μg/mL
Method: as §1

SMILES | MIC MRSA (USA300) [1] [µg/mL] | MIC E. faecalis (VRE) [2] [µg/mL] | MIC Clostridioides difficile [3] [µg/mL] | MIC E. coli (TolC mutant) [4] [µg/mL] | MIC ([5]; CD strain 81) [µg/mL] | MIC ([5]; CD strain 82) [µg/mL] | MIC ([5]; CD strain 83) [µg/mL] | MIC ([5]; CD strain 84) [µg/mL] | MIC ([5]; CD strain 85) [µg/mL] | MIC ([5]; CD strain 86) [µg/mL] | MIC ([5]; CD strain 87) [µg/mL] | MIC ([5]; CD strain 90) [µg/mL] | MIC ([5]; CD strain 49279) [µg/mL] | MIC ([5]; CD strain 49287) [µg/mL] | MIC ([5]; CD strain 49291) [µg/mL] | MIC ([6]; CD strain 16) [µg/mL] | MIC ([6]; CD strain 18) [µg/mL] | MIC ([6]; CD strain 19) [µg/mL] | MIC ([6]; CD strain 1801) [µg/mL] | MIC ([6]; CD strain 43255) [µg/mL] | also measured
CC(C)(C)[Si](C)(C)OCCC1OC(=O)C(CN2CCCCC2)C1c1cccc(Br)c1 (racemic) [Compound 48] | >128 | >128 | 8 (≈ 16.1 µM) | >128 | 16 (≈ 32.2 µM) | 8 (≈ 16.1 µM) | 8 (≈ 16.1 µM) | 8 (≈ 16.1 µM) | 8 (≈ 16.1 µM) | 8 (≈ 16.1 µM) | 4 (≈ 8.06 µM) | 4 (≈ 8.06 µM) | 8 (≈ 16.1 µM) | 4 (≈ 8.06 µM) | 4 (≈ 8.06 µM) | 4 (≈ 8.06 µM) | 2 (≈ 4.03 µM) | 4 (≈ 8.06 µM) | 8 (≈ 16.1 µM) | 8 (≈ 16.1 µM) | MIC ([6]; CD strain P6): 8 µg/mL (≈ 16.1 µM); MIC ([6]; CD strain P7): 2 µg/mL (≈ 4.03 µM); MIC ([6]; CD strain P13): 2 µg/mL (≈ 4.03 µM); MIC ([6]; CD strain P19): 2 µg/mL (≈ 4.03 µM); MIC [7]: >128 µg/mL; MIC [8]: >128 µg/mL; MIC [9]: >128 µg/mL; MIC ([10]; L. crispatus HM 375): >128 µg/mL; MIC ([10]; L. crispatus HM 421): >128 µg/mL; MIC ([11]; Ba. fragilis HM 709): >128 µg/mL; MIC ([11]; Ba. fragilis HM 710): >128 µg/mL; MIC ([11]; Ba. fragilis HM 711): >128 µg/mL; MIC ([11]; Ba. fragilis HM 714): >128 µg/mL; MIC ([12]; Ba. dorsei HM 29): >128 µg/mL; MIC ([12]; Ba. dorsei HM 717): >128 µg/mL; MIC [13]: >128 µg/mL; MIC [14]: >128 µg/mL; activity against C. albicans [15]: inactive; inhibition of the tested strains of E. faecium [16]: did not inhibit
C=C1C(=O)OC(CCCCCCCC)C1C=Cc1ccccc1 (racemic) [Compound 51] | >128 | >128 | 8 (≈ 25.6 µM) | >128 | 16 (≈ 51.2 µM) | 16 (≈ 51.2 µM) | 16 (≈ 51.2 µM) | 64 (≈ 205 µM) | 64 (≈ 205 µM) | 32 (≈ 102 µM) | 32 (≈ 102 µM) | 4 (≈ 12.8 µM) | 16 (≈ 51.2 µM) | 8 (≈ 25.6 µM) | 8 (≈ 25.6 µM) | 16 (≈ 51.2 µM) | 2 (≈ 6.4 µM) | 16 (≈ 51.2 µM) | 32 (≈ 102 µM) | 16 (≈ 51.2 µM) | MIC ([6]; CD strain P6): 8 µg/mL (≈ 25.6 µM); MIC ([6]; CD strain P7): 16 µg/mL (≈ 51.2 µM); MIC ([6]; CD strain P13): 2 µg/mL (≈ 6.4 µM); MIC ([6]; CD strain P19): 16 µg/mL (≈ 51.2 µM); MIC [7]: >128 µg/mL; MIC [8]: >128 µg/mL; MIC [9]: >128 µg/mL; MIC ([10]; L. crispatus HM 375): >128 µg/mL; MIC ([10]; L. crispatus HM 421): >128 µg/mL; MIC ([11]; Ba. fragilis HM 709): >128 µg/mL; MIC ([11]; Ba. fragilis HM 710): >128 µg/mL; MIC ([11]; Ba. fragilis HM 711): >128 µg/mL; MIC ([11]; Ba. fragilis HM 714): >128 µg/mL; MIC ([12]; Ba. dorsei HM 29): >128 µg/mL; MIC ([12]; Ba. dorsei HM 717): >128 µg/mL; MIC [13]: >128 µg/mL; MIC [14]: >128 µg/mL; activity against C. albicans [15]: inactive; inhibition of the tested strains of E. faecium [16]: did not inhibit
C=C1C(=O)O[C@H](c2c(OC)cc(OC)cc2OC)[C@@H]1c1ccc(C(F)(F)F)cc1 (racemic) [Compound 61] | >128 | >128 | 8 (≈ 19.6 µM) | >128 | 16 (≈ 39.2 µM) | 16 (≈ 39.2 µM) | 64 (≈ 157 µM) | 64 (≈ 157 µM) | 64 (≈ 157 µM) | 32 (≈ 78.4 µM) | 8 (≈ 19.6 µM) | 16 (≈ 39.2 µM) | 64 (≈ 157 µM) | 8 (≈ 19.6 µM) | 8 (≈ 19.6 µM) | 16 (≈ 39.2 µM) | 2 (≈ 4.9 µM) | 8 (≈ 19.6 µM) | 16 (≈ 39.2 µM) | 4 (≈ 9.79 µM) | MIC ([6]; CD strain P6): 8 µg/mL (≈ 19.6 µM); MIC ([6]; CD strain P7): 8 µg/mL (≈ 19.6 µM); MIC ([6]; CD strain P13): 8 µg/mL (≈ 19.6 µM); MIC ([6]; CD strain P19): 8 µg/mL (≈ 19.6 µM); MIC [7]: >128 µg/mL; MIC [8]: >128 µg/mL; MIC [9]: >128 µg/mL; MIC ([10]; L. crispatus HM 375): >128 µg/mL; MIC ([10]; L. crispatus HM 421): >128 µg/mL; MIC ([11]; Ba. fragilis HM 709): >128 µg/mL; MIC ([11]; Ba. fragilis HM 710): >128 µg/mL; MIC ([11]; Ba. fragilis HM 711): >128 µg/mL; MIC ([11]; Ba. fragilis HM 714): >128 µg/mL; MIC ([12]; Ba. dorsei HM 29): >128 µg/mL; MIC ([12]; Ba. dorsei HM 717): >128 µg/mL; MIC [13]: >128 µg/mL; MIC [14]: >128 µg/mL; activity against C. albicans [15]: inactive; inhibition of the tested strains of E. faecium [16]: did not inhibit
CC(=O)NC[C@H]1CN(c2ccc(N3CCOCC3)c(F)c2)C(=O)O1 [Linezolid, reference compound] | – | – | – | – | – | – | – | – | – | – | – | – | – | – | – | – | – | – | – | – | MIC ([1]; Staphylococcus aureus, read-out: MIC MRSA (USA300)): 1 µg/mL (≈ 2.96 µM); MIC ([2]; Enterococcus faecalis, VRE): 1 µg/mL (≈ 2.96 µM); MIC ([4]; Escherichia coli, 18 h, read-out: MIC E. coli (TolC mutant)): 16 µg/mL (≈ 47.4 µM)
